≈ marks a conversion by molar mass, not a printed value. Calls of active or inactive are those of the source. The rule behind the calls is not given here.
What was measured:
Mus musculus [1] = assay: Antiallodynic activity against CFA-induced C57BL/6N mouse inflammatory pain model assessed as inhibition of inflammatory mechanical allodynia at 5.6 mg/kg, ip measured over 2 hrs post treatment by von Frey test; type: functional, organism-based
Adenylate cyclase type 8 [2] = biological target: T1, Adenylate cyclase type 8 (Homo sapiens, UniProt P40145); assay: Inhibition of Ca2+/ CAM stimulated human AC8 activity expressed in AC3 and AC6-knockout HEK293 cells assessed as A23187 stimulated cAMP accumulation incubated for 30 mins followed by […] in presence of IBMX for 1 hr by HTRF assay; type: cell-based
Adenylate cyclase type 8 [3] = biological target: T1, Adenylate cyclase type 8; assay: Inhibition of Ca2+/ CAM stimulated human AC8 activity expressed in AC3 and AC6-knockout HEK293 cells assessed as A23187 stimulated cAMP accumulation incubated for 30 mins followed by […] in presence of IBMX for 1 hr by HTRF assay relative to control; type: cell-based; set-up: concentration or dose not given beside the values; settings: time 90.0 min
Adenylate cyclase type 1 = Adenylate cyclase type 1 (Homo sapiens, UniProt Q08828)
Description: Inhibition of Ca2+/ CAM stimulated human AC1 activity expressed in AC3 and AC6-knockout HEK293 cells assessed as A23187 stimulated cAMP accumulation incubated for 30 mins followed by A2318 stimulation in presence of IBMX for 1 hr by HTRF assay

[4] = biological target: Voltage-gated inwardly rectifying potassium channel KCNH2 (Homo sapiens, UniProt Q12809); assay: Displacement of [3H]astemizole from human ERG expressed in HEK293 cell membrane at 10 uM by Radiometric displacement assay relative to control; type: toxicity, cell membranes; settings: hek293, 10 µM
[5] = biological target: Insulin receptor (Homo sapiens) (UniProt P06213); assay: Inhibition of human recombinant IRK assessed as inhibition of phosphorylation activity at 10 uM using 33P-labeleled peptide substrate by radiometric scintillation counting assay relative to control
[6] = Thermodynamic solubility of the compound in PBS at pH 7.4; type: physicochemical; settings: read-out: Therm_solubility
Adenylate cyclase type 8 [7] = biological target: T1, Adenylate cyclase type 8; assay: Inhibition of Ca2+/ CAM stimulated human AC8 expressed in AC3 and AC6-knockout HEK293 cells assessed as A23187 stimulated cAMP accumulation at 10 uM incubated for 30 mins followed by […] in presence of IBMX for 1 hr by HTRF assay relative to control; type: cell-based; settings: time 90.0 min
[8] = biological target: 5-hydroxytryptamine receptor 2B (Homo sapiens, UniProt P41595); assay: Binding affinity to 5-HT2B receptor (unknown origin) assessed as displacement of radioligand at 10 uM by radioligand binding assay
HEK293 = assay: Cytotoxicity against HEK293 cells assessed as reduction in cell viability at 30 uM incubated for 1 hr by cell titer glo assay; type: toxicity, cell-based; settings: human, hek293, 1 h
[9] = biological target: Vascular endothelial growth factor receptor 2 (Homo sapiens) (UniProt P35968); assay: Inhibition of human recombinant VEGFR2 assessed as inhibition of phosphorylation activity at 10 uM using 33P-labeleled peptide substrate by radiometric scintillation counting assay relative to control
CYP2D6 = CYP2D6 (Homo sapiens, UniProt P10635); assay: Inhibition of CYP2D6 (unknown origin) at 10 uM relative to control; type: ADME
CYP3A4 = CYP3A4 (Homo sapiens, UniProt P08684); assay: Inhibition of CYP3A4 (unknown origin) at 10 uM relative to control; type: ADME
Mus musculus [10] = assay: Antiallodynic activity against CFA-induced C57BL/6N mouse inflammatory pain model assessed as inhibition of inflammatory mechanical allodynia at 5.6 mg/kg, ip measured at 1 hr post treatment by von Frey test; type: functional, organism-based
CYP2C19 = CYP2C19 (Homo sapiens, UniProt P33261); assay: Inhibition of CYP2C19 (unknown origin) at 10 uM relative to control; type: ADME
[11] = Metabolic stability in human liver microsomes assessed as compound remaining after 45 mins; type: ADME, Microsome; settings: 0.75 h
[12] = Metabolic stability in human liver microsomes assessed as compound remaining after 60 mins; type: ADME, Microsome; settings: 1 h
[13] = Metabolic stability in human liver microsomes assessed as compound remaining after 30 mins; type: ADME, Microsome; settings: 0.5 h
CYP1A2 = biological target: T2, CYP1A2 (Homo sapiens, UniProt P05177); assay: Inhibition of CYP1A2 (unknown origin) at 10 uM relative to control; type: ADME
T2 sequence (P05177 whole entry): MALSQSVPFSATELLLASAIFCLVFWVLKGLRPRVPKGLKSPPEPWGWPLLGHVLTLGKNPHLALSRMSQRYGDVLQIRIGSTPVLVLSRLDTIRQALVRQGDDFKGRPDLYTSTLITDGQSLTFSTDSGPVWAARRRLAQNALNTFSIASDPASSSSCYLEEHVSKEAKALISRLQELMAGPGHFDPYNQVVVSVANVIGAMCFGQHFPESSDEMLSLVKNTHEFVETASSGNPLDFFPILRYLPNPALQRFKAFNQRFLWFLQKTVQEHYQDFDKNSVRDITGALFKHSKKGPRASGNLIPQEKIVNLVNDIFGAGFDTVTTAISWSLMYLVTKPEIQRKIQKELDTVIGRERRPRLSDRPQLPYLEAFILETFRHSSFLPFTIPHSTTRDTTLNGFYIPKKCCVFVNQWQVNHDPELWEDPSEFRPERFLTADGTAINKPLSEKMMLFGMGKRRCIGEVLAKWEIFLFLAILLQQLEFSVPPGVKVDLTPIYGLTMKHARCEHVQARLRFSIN

[14] = Half life in human liver microsomes; type: ADME, Microsome
[15] = Intrinsic clearance in human liver microsomes; type: ADME, Microsome
[16] = Apparent permeability in MDCK-II cells; type: ADME, cell-based, Canis lupus familiaris; settings: dog
CYP2C9 = CYP2C9 (Homo sapiens, UniProt P11712); assay: Inhibition of CYP2C9 (unknown origin) at 10 uM relative to control; type: ADME
[17] = Metabolic stability in human liver microsomes assessed as compound remaining after 15 mins; type: ADME, Microsome; settings: 0.25 h

Chain of Insulin receptor (Homo sapiens) (P06213 28-758 limits assumed): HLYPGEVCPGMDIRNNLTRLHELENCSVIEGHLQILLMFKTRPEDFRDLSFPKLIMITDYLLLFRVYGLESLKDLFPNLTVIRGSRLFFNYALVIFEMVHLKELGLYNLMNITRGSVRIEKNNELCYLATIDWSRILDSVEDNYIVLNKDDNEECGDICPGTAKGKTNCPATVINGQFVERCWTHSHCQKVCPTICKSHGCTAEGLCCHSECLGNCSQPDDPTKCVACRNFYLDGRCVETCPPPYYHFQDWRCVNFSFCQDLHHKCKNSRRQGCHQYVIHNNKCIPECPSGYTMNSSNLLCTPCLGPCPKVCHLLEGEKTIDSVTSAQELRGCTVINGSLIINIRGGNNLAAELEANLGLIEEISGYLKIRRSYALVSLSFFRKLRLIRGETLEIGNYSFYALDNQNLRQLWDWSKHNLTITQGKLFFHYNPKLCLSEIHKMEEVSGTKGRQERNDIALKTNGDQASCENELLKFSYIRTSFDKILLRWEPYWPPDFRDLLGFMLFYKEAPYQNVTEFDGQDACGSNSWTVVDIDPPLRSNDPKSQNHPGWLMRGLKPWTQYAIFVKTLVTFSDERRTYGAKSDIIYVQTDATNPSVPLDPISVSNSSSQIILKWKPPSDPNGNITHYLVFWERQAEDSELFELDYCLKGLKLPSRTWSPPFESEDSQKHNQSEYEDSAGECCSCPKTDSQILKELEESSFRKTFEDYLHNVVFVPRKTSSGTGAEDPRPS
Chain of Insulin receptor (Homo sapiens) (P06213 763-1382 limits assumed): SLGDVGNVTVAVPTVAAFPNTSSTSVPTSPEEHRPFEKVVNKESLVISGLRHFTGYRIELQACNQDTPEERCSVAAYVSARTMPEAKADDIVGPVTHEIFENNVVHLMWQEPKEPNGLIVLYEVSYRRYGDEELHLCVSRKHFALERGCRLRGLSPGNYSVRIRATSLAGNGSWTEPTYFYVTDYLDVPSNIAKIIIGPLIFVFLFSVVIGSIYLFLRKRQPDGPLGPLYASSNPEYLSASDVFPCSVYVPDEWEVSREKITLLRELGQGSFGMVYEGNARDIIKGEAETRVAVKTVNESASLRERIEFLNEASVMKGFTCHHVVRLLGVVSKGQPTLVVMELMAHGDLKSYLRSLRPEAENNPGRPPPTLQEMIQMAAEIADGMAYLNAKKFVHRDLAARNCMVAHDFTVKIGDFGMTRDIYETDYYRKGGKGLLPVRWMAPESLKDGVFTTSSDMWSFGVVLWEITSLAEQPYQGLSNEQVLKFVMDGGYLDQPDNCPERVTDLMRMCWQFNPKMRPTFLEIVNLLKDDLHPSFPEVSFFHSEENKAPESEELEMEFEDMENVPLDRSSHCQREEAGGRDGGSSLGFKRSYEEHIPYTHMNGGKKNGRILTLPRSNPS
Chain of Adenylate cyclase type 1 (Q08828 whole entry): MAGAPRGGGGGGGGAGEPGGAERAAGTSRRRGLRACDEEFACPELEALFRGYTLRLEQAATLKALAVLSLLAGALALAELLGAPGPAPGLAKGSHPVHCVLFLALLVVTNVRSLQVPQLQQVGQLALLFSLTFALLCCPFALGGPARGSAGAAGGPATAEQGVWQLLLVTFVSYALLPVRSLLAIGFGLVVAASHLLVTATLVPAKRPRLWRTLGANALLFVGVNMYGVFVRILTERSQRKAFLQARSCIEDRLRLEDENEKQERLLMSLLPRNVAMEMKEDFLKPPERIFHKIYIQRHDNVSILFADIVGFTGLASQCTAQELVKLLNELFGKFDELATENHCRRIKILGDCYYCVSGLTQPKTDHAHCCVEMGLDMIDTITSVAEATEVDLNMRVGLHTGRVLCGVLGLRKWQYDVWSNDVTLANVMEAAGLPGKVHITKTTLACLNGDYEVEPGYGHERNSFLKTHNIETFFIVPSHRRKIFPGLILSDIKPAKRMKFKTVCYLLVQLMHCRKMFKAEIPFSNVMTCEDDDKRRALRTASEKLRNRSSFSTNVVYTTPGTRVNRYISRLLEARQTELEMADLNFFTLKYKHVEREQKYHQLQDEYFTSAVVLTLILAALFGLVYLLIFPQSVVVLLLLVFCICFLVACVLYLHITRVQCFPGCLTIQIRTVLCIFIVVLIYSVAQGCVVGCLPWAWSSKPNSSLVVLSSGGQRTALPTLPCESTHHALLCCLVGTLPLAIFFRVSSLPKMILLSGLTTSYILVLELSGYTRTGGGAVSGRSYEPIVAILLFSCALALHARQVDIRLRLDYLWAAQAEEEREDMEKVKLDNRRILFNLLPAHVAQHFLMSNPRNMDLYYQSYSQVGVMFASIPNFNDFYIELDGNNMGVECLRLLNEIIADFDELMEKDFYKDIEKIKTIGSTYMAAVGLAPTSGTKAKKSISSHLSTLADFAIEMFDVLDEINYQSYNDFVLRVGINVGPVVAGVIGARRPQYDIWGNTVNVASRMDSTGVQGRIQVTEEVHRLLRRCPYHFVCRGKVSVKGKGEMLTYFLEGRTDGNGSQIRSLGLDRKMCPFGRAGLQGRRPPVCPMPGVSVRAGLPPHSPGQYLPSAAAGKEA
Chain of 5-hydroxytryptamine receptor 2B (P41595 whole entry): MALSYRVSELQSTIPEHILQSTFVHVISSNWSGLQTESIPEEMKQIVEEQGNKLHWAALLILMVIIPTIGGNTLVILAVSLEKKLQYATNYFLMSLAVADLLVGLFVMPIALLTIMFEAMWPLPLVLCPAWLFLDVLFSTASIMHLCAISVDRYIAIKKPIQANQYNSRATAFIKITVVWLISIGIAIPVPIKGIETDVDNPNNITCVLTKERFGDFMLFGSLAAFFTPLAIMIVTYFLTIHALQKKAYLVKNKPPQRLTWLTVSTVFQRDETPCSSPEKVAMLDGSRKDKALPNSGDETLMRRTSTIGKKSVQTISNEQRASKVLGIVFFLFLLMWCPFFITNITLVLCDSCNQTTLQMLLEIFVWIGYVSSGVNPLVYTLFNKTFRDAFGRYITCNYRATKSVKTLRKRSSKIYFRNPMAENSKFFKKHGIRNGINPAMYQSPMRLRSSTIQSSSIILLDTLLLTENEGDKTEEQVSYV
T1 sequence (P40145 whole entry): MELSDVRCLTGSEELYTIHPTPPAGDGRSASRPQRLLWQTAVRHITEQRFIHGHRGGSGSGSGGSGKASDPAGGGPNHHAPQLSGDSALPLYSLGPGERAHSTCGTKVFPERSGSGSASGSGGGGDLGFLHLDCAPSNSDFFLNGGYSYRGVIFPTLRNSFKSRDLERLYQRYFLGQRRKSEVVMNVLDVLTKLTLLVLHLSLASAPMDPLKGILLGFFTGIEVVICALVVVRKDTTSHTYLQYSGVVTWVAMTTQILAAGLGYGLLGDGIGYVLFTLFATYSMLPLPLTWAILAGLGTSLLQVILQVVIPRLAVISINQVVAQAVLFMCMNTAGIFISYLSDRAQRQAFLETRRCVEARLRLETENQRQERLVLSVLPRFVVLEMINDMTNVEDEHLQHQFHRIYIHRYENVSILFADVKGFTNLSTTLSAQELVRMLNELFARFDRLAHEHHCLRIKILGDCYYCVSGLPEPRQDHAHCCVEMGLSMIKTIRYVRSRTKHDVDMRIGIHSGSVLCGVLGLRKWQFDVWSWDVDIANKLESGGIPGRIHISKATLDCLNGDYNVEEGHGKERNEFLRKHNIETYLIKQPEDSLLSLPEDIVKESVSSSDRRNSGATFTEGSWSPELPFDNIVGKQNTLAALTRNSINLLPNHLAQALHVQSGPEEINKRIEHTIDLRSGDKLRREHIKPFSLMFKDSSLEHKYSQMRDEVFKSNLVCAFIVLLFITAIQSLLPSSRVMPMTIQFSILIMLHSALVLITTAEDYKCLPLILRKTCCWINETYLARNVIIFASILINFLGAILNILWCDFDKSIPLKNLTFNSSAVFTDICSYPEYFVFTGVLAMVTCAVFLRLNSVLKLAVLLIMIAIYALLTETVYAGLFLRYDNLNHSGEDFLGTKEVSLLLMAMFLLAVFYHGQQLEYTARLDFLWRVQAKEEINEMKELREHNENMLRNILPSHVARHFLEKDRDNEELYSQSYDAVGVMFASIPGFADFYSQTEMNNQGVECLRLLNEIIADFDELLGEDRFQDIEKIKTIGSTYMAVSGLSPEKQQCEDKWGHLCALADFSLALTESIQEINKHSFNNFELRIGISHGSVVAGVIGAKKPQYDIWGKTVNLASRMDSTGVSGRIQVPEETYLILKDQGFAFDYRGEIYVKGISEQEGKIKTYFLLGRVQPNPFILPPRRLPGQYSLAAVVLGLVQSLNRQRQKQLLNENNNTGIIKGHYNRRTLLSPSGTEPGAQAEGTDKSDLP
Chain of CYP3A4 (P08684 whole entry): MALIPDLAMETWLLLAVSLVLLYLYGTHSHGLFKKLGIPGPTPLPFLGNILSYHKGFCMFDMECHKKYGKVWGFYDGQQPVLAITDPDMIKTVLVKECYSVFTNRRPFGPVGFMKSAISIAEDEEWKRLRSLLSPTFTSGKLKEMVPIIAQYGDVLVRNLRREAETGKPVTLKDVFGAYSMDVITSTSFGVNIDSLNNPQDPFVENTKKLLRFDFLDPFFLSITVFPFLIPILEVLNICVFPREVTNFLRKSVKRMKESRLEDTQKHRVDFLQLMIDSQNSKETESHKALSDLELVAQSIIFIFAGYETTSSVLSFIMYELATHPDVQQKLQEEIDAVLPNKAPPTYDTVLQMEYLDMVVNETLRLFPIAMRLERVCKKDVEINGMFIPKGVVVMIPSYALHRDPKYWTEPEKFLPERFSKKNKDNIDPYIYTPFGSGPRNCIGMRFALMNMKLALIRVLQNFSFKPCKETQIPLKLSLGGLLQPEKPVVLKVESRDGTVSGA

Structure (SMILES)	IC50 (Adenylate cyclase type 8 [2]) [nM]	inhibition (Adenylate cyclase type 8 [3]) [%]	IC50 (Adenylate cyclase type 1) [nM]	further results
CN1CC[C@]23c4c5ccc(O)c4O[C@H]2[C@@H](O)C=C[C@H]3[C@H]1C5				Activity (Mus musculus [1]): Active
CCc1cc(=O)[nH]c(-n2nc(C)cc2NC(=O)c2cccc(OC)c2)n1	9600	5	1420	
CCc1cc(=O)[nH]c(-n2nc(C)cc2NC(=O)c2ccccc2CC)n1	> 60000	21	3100	
CCc1cc(=O)[nH]c(-n2nc(C)cc2NC(=O)c2cccc(C(C)C)c2)n1	2600	28	360	
CCc1cc(=O)[nH]c(-n2nc(C)cc2NC(=O)c2ccc(C)c(C)c2)n1	710	27	290	inhibition (INH) [4]: 11%; inhibition [5]: 4%; solubility thermodynamic [6]: 7.6 µM (≈ 2.67 µg/mL); inhibition (Adenylate cyclase type 8 [7]): Active; inhibition [8]: 32%; Activity (HEK293): Non-Toxic
CCc1cc(=O)[nH]c(-n2nc(C)cc2NC(=O)c2cccc(Br)c2)n1	2100	15	610	
CCc1cc(=O)[nH]c(-n2nc(C)cc2NC(=O)c2cccc(C)c2)n1	2700	27	410	solubility thermodynamic [6]: 19.5 µM (≈ 6.58 µg/mL); inhibition (Adenylate cyclase type 8 [7]): Active; Ki [8]: 900 nM; Activity (HEK293): Non-Toxic
CCc1cccc(C(=O)Nc2cc(C)nn2-c2nc(CC)cc(=O)[nH]2)c1	3500	12	440	inhibition [5]: 57%; solubility thermodynamic [6]: 10.8 µM (≈ 3.8 µg/mL); inhibition (Adenylate cyclase type 8 [7]): Active; inhibition ([8]; filed as antagonist): 49%; Activity (HEK293): Non-Toxic; inhibition [9]: 28%
CCc1cc(=O)[nH]c(-n2nc(C)cc2NC(=O)c2cc(C)ccc2F)n1				inhibition at 10 µM (CYP2D6): 0.3%; inhibition (INH) [4]: 6%; inhibition [5]: 64%; solubility thermodynamic [6]: 33.6 µM (≈ 11.9 µg/mL); inhibition at 10 µM (CYP3A4): -0.9%; Activity (Mus musculus [10]): Active; inhibition at 10 µM (CYP2C19): 1.8%; Stability [11]: 57.5%; Stability [12]: 44.5%; Stability [13]: 67.4%; inhibition (Adenylate cyclase type 8 [7]): Active; inhibition at 10 µM (CYP1A2): 8.7%; t1/2 [14]: 51.2 min; CLH [15]: 136.7 µL/min/mg; Papp [16]: 2.21 ×10⁻⁶ cm/s; inhibition at 10 µM (CYP2C9): -0.2%; Activity (HEK293): Non-Toxic; Stability [17]: 88.3%
CCc1cc(=O)[nH]c(-n2nc(C)cc2NC(=O)c2ccc(OC)cc2)n1	> 60000	0		
CCc1cc(=O)[nH]c(-n2nc(C)cc2NC(=O)c2cccc(-c3ccccc3)c2)n1	570	37	250	
CCc1cc(=O)[nH]c(-n2nc(C)cc2NC(=O)c2ccccc2F)n1	1900	46	1400	inhibition (Adenylate cyclase type 8 [7]): Active; Ki [8]: 1300 nM; Activity (HEK293): Non-Toxic
CCc1cc(=O)[nH]c(-n2nc(C)cc2NC(=O)c2cccc(C)c2F)n1	> 60000	9	570	
CCc1cc(=O)[nH]c(-n2nc(C)cc2NC(=O)c2ccccn2)n1	2800	46		
CCc1cc(=O)[nH]c(-n2nc(C)cc2NC(=O)c2ccc(Cl)cc2)n1	2500	53	360	
CCc1cc(=O)[nH]c(-n2nc(C)cc2NC(=O)c2cccc(Cl)c2)n1	1000	48	470	
CCc1cc(=O)[nH]c(-n2nc(C)cc2NC(=O)c2cccc(C(C)(C)C)c2)n1	380	25	880	
CCOc1cccc(C(=O)Nc2cc(C)nn2-c2nc(CC)cc(=O)[nH]2)c1	4400	11	900	
